Active and inactive are the calls of the source. The rule behind the calls is not given here.
Test system: CCRIS mutagenicity, Ames/micronucleus/aberration tests
Assay: CCRIS mutagenicity studies
[1] = Test System: AMES SALMONELLA TYPHIMURIUM, Strain/Indicator: TA100, Metabolic Activation: NONE, Method: STANDARD PLATE
[2] = Test System: AMES SALMONELLA TYPHIMURIUM, Strain/Indicator: TA98, Metabolic Activation: NONE, Method: STANDARD PLATE
[3] = Test System: AMES SALMONELLA TYPHIMURIUM, Strain/Indicator: TA1537, Metabolic Activation: NONE, Method: PREINCUBATION
[4] = Test System: AMES SALMONELLA TYPHIMURIUM, Strain/Indicator: TA98, Metabolic Activation: NONE, Method: PREINCUBATION
[5] = Test System: AMES SALMONELLA TYPHIMURIUM, Strain/Indicator: TA100, Metabolic Activation: NONE, Method: PREINCUBATION

In the case of `O=C(Nc1snc2ccccc12)c1ccccc1`, the mutagenic call [1] is reported as “inactive; negative”, the mutagenic call (Test System: AMES SALMONELLA TYPHIMURIUM, Strain/Indicator: TA100, Metabolic Activation: S-9, Method: STANDARD PLATE) is reported as “active; positive” and the mutagenic call (Test System: AMES SALMONELLA TYPHIMURIUM, Strain/Indicator: TA1537, Metabolic Activation: NONE, Method: STANDARD PLATE) is reported as “inactive; negative”. The mutagenic call (Test System: AMES SALMONELLA TYPHIMURIUM, Strain/Indicator: TA1537, Metabolic Activation: S-9, Method: STANDARD PLATE) was “inactive; negative”.

With `Cn1c(N)nc2nc3ccncc3cc21` the mutagenic call (Test System: AMES SALMONELLA TYPHIMURIUM, Strain/Indicator: TA98, Metabolic Activation: RAT, LIVER, S-9, AROCLOR 1254A, Method: STANDARD PLATE) was “inactive; negative” and the mutagenic call (Test System: AMES SALMONELLA TYPHIMURIUM, Strain/Indicator: YG1024, Metabolic Activation: RAT, LIVER, S-9, AROCLOR 1254A, Method: STANDARD PLATE) was “active; positive”.

`CN(C)CCCNc1c2ccccc2nc2c(N(CCO)CCO)ccc([N+](=O)[O-])c12` was tested, and the mutagenic call [2] was “active; positive” and the mutagenic call [1] was “active; positive”.

In the case of `O=c1cc[nH]c2ccccc12`, the mutagenic call [1] is reported as “inactive; negative” and the mutagenic call (Test System: AMES SALMONELLA TYPHIMURIUM, Strain/Indicator: TA100, Metabolic Activation: RAT, LIVER, S-9, AROCLOR 1254 (10% OR 20%), Method: STANDARD PLATE) is reported as “inactive; negative”.

With `Cn1c2ccccc2c(=O)c2c(O)cc3c(c21)CC(C(C)(O)CCl)O3` (stereo unspecified) the mutagenic call [2] was “active; positive”, the mutagenic call (Test System: AMES SALMONELLA TYPHIMURIUM, Strain/Indicator: TA98, Metabolic Activation: RAT, LIVER, S-9, PHENOBARBITAL, Method: STANDARD PLATE) was “active; positive” and the mutagenic call [1] was “active; positive”. The mutagenic call (Test System: AMES SALMONELLA TYPHIMURIUM, Strain/Indicator: TA100, Metabolic Activation: RAT, LIVER, S-9, PHENOBARBITAL, Method: STANDARD PLATE) was “active; positive”, the mutagenic call (Test System: AMES SALMONELLA TYPHIMURIUM, Strain/Indicator: TA1535, Metabolic Activation: NONE, Method: STANDARD PLATE) was “inactive; negative” and the mutagenic call (Test System: AMES SALMONELLA TYPHIMURIUM, Strain/Indicator: TA1535, Metabolic Activation: RAT, LIVER, S-9, PHENOBARBITAL, Method: STANDARD PLATE) was “inactive; negative”. The mutagenic call (Test System: AMES SALMONELLA TYPHIMURIUM, Strain/Indicator: TA1538, Metabolic Activation: NONE, Method: STANDARD PLATE) was “active; positive”, the mutagenic call (Test System: AMES SALMONELLA TYPHIMURIUM, Strain/Indicator: TA1538, Metabolic Activation: RAT, LIVER, S-9, PHENOBARBITAL, Method: STANDARD PLATE) was “active; positive” and the mutagenic call (Test System: AMES SALMONELLA TYPHIMURIUM, Strain/Indicator: TA1978, Metabolic Activation: NONE, Method: STANDARD PLATE) was “active; positive”. The mutagenic call (Test System: AMES SALMONELLA TYPHIMURIUM, Strain/Indicator: TA1978, Metabolic Activation: RAT, LIVER, S-9, PHENOBARBITAL, Method: STANDARD PLATE) was “inactive; negative”.

`Cc1c2ccccc2c(CBr)c2ccccc12` was tested, and the mutagenic call [2] was “active; positive” and the mutagenic call [1] was “inactive; negative”.

With `C[C@@H]1O[C@@H](OC[C@H]2O[C@@H](Oc3c(-c4ccc(O)c(O)c4)oc4cc(O)cc(O)c4c3=O)[C@H](O)[C@@H](O)[C@@H]2O)[C@H](O)[C@H](O)[C@H]1O` the mutagenic call (Test System: Ames Salmonella typhimurium, Strain/Indicator: TA98, Metabolic Activation: None, Method: Standard plate) was “inactive; negative” and the mutagenic call (Test System: Ames Salmonella typhimurium, Strain/Indicator: TA98, Metabolic Activation: Rat, Liver, S-9, Aroclor 1254, Method: Standard Plate) was “inactive; negative”.

For `Cc1cc(C)c(N=Nc2c(O)c(S(=O)(=O)O)cc3cc(S(=O)(=O)O)ccc23)cc1C`, the mutagenic call (Test System: AMES SALMONELLA TYPHIMURIUM, Strain/Indicator: TA100, Metabolic Activation: HAMSTER, LIVER, S-9, Method: PREINCUBATION (PRIVAL METHOD)) was “active; positive”, the mutagenic call (Test System: MOUSE LYMPHOMA, Strain/Indicator: L5178Y (TK+/TK-), Metabolic Activation: NONE, Method: SUSPENSION/PLATE) was “active; positive. reevaluation of results: equivocal” and the mutagenic call (Test System: MOUSE LYMPHOMA, Strain/Indicator: L5178Y (TK+/TK-), Metabolic Activation: RAT, LIVER, S-9, AROCLOR 1254, Method: SUSPENSION/PLATE) was “active; positive. reevaluation of results: equivocal”.

In the case of `Nc1c2ccccc2nc2ccc(Cl)cc12`, the mutagenic call [3] is reported as “active; positive”.

With `C[C@@H](O)[C@H]1C(=O)N2C(C(=O)O)=C([C@H]3CCCO3)S[C@H]12` the mutagenic call [4] was “inactive; negative”, the mutagenic call (Test System: AMES SALMONELLA TYPHIMURIUM, Strain/Indicator: TA98, Metabolic Activation: S-9, Method: PREINCUBATION) was “inactive; negative” and the mutagenic call [5] was “inactive; negative”. For the same molecule, the mutagenic call (Test System: AMES SALMONELLA TYPHIMURIUM, Strain/Indicator: TA100, Metabolic Activation: S-9, Method: PREINCUBATION) was “inactive; negative”, the mutagenic call (Test System: AMES SALMONELLA TYPHIMURIUM, Strain/Indicator: TA1535, Metabolic Activation: NONE, Method: PREINCUBATION) was “inactive; negative” and the mutagenic call (Test System: AMES SALMONELLA TYPHIMURIUM, Strain/Indicator: TA1535, Metabolic Activation: S-9, Method: PREINCUBATION) was “inactive; negative”. The mutagenic call [3] was “inactive; negative”, the mutagenic call (Test System: AMES SALMONELLA TYPHIMURIUM, Strain/Indicator: TA1537, Metabolic Activation: S-9, Method: PREINCUBATION) was “inactive; negative” and the mutagenic call (Test System: E.COLI, Strain/Indicator: WP2 UVRA, Metabolic Activation: NONE, Method: PREINCUBATION) was “inactive; negative”. The mutagenic call (Test System: E.COLI, Strain/Indicator: WP2 UVRA, Metabolic Activation: S-9, Method: PREINCUBATION) was “inactive; negative”.

For `ClCBr`, the mutagenic call (Test System: AMES SALMONELLA TYPHIMURIUM, Strain/Indicator: TA97, Metabolic Activation: NONE, Method: STANDARD PLATE) was “active; positive”, the mutagenic call (Test System: AMES SALMONELLA TYPHIMURIUM, Strain/Indicator: TA97, Metabolic Activation: RAT, LIVER, S-9, AROCLOR 1254, Method: STANDARD PLATE) was “active; positive” and the mutagenic call (Test System: AMES SALMONELLA TYPHIMURIUM, Strain/Indicator: TA98, Metabolic Activation: HAMSTER, LIVER, S-9, AROCLOR 1254 (30%), Method: PREINCUBATION) was “active; positive”. The mutagenic call [4] was “active; positive”, the mutagenic call [2] was “active; positive” and the mutagenic call (Test System: AMES SALMONELLA TYPHIMURIUM, Strain/Indicator: TA98, Metabolic Activation: RAT, LIVER, S-9, AROCLOR 1254 (30%), Method: PREINCUBATION) was “active; positive”. For the same molecule, the mutagenic call (Test System: AMES SALMONELLA TYPHIMURIUM, Strain/Indicator: TA98, Metabolic Activation: RAT, LIVER, S-9, AROCLOR 1254, Method: STANDARD PLATE) was “active; positive”, the mutagenic call (Test System: AMES SALMONELLA TYPHIMURIUM, Strain/Indicator: TA100, Metabolic Activation: HAMSTER, LIVER, S-9, AROCLOR 1254 (30%), Method: PREINCUBATION) was “active; positive” and the mutagenic call (Test System: AMES SALMONELLA TYPHIMURIUM, Strain/Indicator: TA100, Metabolic Activation: NONE, Method: DESICCATOR) was “active; positive”. The mutagenic call [5] was “active; positive”, the mutagenic call [1] was “active; positive” and the mutagenic call (Test System: AMES SALMONELLA TYPHIMURIUM, Strain/Indicator: TA100, Metabolic Activation: RAT, LIVER, S-9, AROCLOR 1254 (30%), Method: PREINCUBATION) was “active; positive”. The mutagenic call (Test System: AMES SALMONELLA TYPHIMURIUM, Strain/Indicator: TA100, Metabolic Activation: RAT, LIVER, S-9, AROCLOR 1254, Method: STANDARD PLATE) was “active; positive”, the mutagenic call (Test System: AMES SALMONELLA TYPHIMURIUM, Strain/Indicator: TA104, Metabolic Activation: NONE, Method: STANDARD PLATE) was “active; positive” and the mutagenic call (Test System: AMES SALMONELLA TYPHIMURIUM, Strain/Indicator: TA104, Metabolic Activation: RAT, LIVER, S-9, AROCLOR 1254, Method: STANDARD PLATE) was “inactive; negative”.

In the case of `CC(=O)OCc1cccc([N+](=O)[O-])c1`, the mutagenic call [4] is reported as “inactive; negative”, the mutagenic call [5] is reported as “inactive; negative” and the mutagenic call (Test System: AMES SALMONELLA TYPHIMURIUM, Strain/Indicator: TA100, Metabolic Activation: RAT, LIVER, S-9, AROCLOR 1254, Method: PREINCUBATION) is reported as “inactive; negative”.
